“Also recorded” adds a separate entry of the source. Peptide text beside a SMILES is read from it. * marks the point of attachment. For = O=C*
Key:
mouse Fpr3 (Fpr-rs1) = target: T1, mouse Fpr3 (Fpr-rs1) (Mus musculus, UniProt O08790); test: Concentration-response Ca2+ imaging of Fpr3-transfected HEK293T cells (Fig. 2f, h, j); assay type: cell-based; conditions: Ca2+ responses of Fpr3-transfected HEK293T; Fluo-4/AM, FLIPR; buffer C1 pH 7.2; Fig. 2f, h, j
T1 construct: expressed in transfected cells; host or cells: HEK293T (DSMZ # ACC-635), transient transfection with jetPEI
T1 sequence (O08790 1-351): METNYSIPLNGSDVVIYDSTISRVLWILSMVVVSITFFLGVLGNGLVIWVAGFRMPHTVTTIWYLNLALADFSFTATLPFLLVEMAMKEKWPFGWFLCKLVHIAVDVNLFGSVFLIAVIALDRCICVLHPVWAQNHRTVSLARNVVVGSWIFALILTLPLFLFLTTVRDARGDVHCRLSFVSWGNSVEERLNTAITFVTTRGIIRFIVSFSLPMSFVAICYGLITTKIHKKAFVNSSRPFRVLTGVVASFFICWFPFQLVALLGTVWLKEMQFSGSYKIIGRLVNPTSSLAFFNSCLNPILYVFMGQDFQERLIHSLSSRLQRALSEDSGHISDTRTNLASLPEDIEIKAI
Description: An Fpr3 gene subcloned from genomic DNA of C57BL/6J mice into pcDNA3.1 (Invitrogen) was used in heterologous experiments[21],[80]. HEK293T (DSMZ # ACC-635) cells were seeded at 20–30% confluence on poly-D-lysine-coated (10 µg/ml in PBS) black 96-well µCLEAR-Plates (Greiner Bio-One). Cells were transfected 24 h later using jetPEI™ (Polyplus-transfection SA) according to the manufacturer’s protocol for 96-well transfections. For Ca^2+ imaging experiments, 0.125 µg of DNA plasmid encoding Fpr3 were cotransfected with equal amounts of a plasmid encoding Gα16, a promiscuous G protein α-subunit. Ca^2+ signals to agonist stimulation were recorded 48 h post transfection using the Ca^2+ indicator dye Fluo-4/AM (Molecular Probes) and a fluorescence imaging plate reader (FLIPR) system (Molecular Devices).
We used custom-made peptides with a length of 6–21 amino acids to screen for agonists. Sequences of fMet peptides were designed according to motifs present at the N-termini of 15,125 specific bacterial proteins as annotated in UniProt. Peptides were chemically synthesised, purified, and verified by mass spectroscopy (MALDI-TOF) by commercial suppliers. […] Source, sequence and purity of each peptide are listed in Supplementary Data 1. Lyophilised peptides were routinely dissolved in the Ca^2+ imaging assay buffer C1 (130 mM NaCl, 10 mM HEPES, 5 mM KCl, 2 mM CaCl2, 5 mM glucose, pH 7.2) as 0.2–1 mM stock solutions and kept in small aliquots at −20 °C until use.

[1] = system: vomeronasal sensory neurons (VSNs); test: Density of responding VSN knobs in mice of various genotypes, Rhod-2 Ca2+ imaging (Fig. 7a, b); assay type: cell-based, mouse; conditions: f-MKKFRW 1 µM or PUM; for density of responding knobs: mean ± s.d.
Excerpt: (§1) Mice (6–20 week old, either sex) were euthanized by CO2 inhalation according to institutional guidelines. After decapitation, the skin was removed from the skull, the mandible was cut off and the cranium was opened by a sagittal cut, 1–2-mm right-lateral in parallel to the midline. The palate and the right incisor were removed and the hemisected skull was mounted in low-melting agarose (4%). The bony capsule of the VNO was opened with fine forceps and the nonsensory epithelium was stripped off. Tissue and cell debris were gently washed off, and the en face preparation was superfused with physiological S1 solution (120 mM NaCl, 25 mM NaHCO3, 5 mM KCl, 1 mM MgSO4, 1 mM CaCl2, 10 mM glucose, 5 mM BES, pH 7.3) saturated with carbogen (95% O2, 5% CO2).
(§2) Loading of the VNE with Rhod-2/AM (5–15 µM, 1 h) was performed in S1 solution under carbogen atmosphere at RT. Images were taken with an upright confocal laser scanning microscope (Leica TCS SP5 II, 20x water immersion objective HCX APO L20x/1.0w) equipped with Ar and He/Ne lasers. GFP was excited at 488 nm, Venus at 514 nm and Rhod-2 at 543 nm. Emission was measured at 490–520 nm (GFP), 520–600 nm (Venus) and 560–680 nm (Rhod-2). To minimise interference between Venus and Rhod-2 fluorescence, images were taken sequentially (sample interval per image, 3–4 s). Peptide stimuli were applied to the VNE surface with a local perfusion system which, when positioned close to the anterior end of the VNO, produced a continuous solution stream from rostral to caudal along the VNO axis. Data analysis was performed with the open source software ImageJ (NIH). Ca^2+ responses of individual dendritic knobs were normalised to the knob resting fluorescence level obtained before stimulation (ratio Fx/F0, Fx = actual fluorescence; F0 = mean fluorescence of 3–5 images before ligand application). Mapping was performed by superimposing Ca^2+ peak images onto images showing intrinsic fluorescence for specific markers.
(§3) Predator urine mix was composed of urine from mountain lion, coyote, bobcat, fox and marten (at equal volume ratios), purchased from Predatorpee (USA) and Kieferle (Germany). The fMet peptides were as described above. Stimuli were applied in S2 solution (140 mM NaCl, 5 mM KCl, 10 mM HEPES, 1 mM CaCl2, 1 mM MgCl2, 10 mM glucose, pH 7.3 with NaOH).
For calculations of VSN knob density, we analysed randomly selected VNE areas, each containing several hundred knobs. The mean density of OMP-GFP+ knobs was 11.25 knobs/100 µm². Through the knob density and the VNE surface area, an estimate of the total number of VSNs per VNO can be made. Assuming a mean lumen diameter of 450 µm, a length of 2 mm and an end-to-end semilunar cross-sectional shape of the VNO, a number of ~150,000 VSNs (per side) can be estimated. This number is consistent with our previous estimates.

[2] = system: vomeronasal sensory neurons (VSNs); test: VNO whole-mount en face confocal Ca2+ imaging of VSN dendritic knobs (Fig. 4, 5); assay type: cell-based, mouse; design: key to Ca2+ response of f-MKKFRW-responsive VSN knobs / Fpeak: normalised to knob resting fluorescence F0 before stimulation; conditions: for Fpeak / Ca2+ response of f-MKKFRW-responsive VSN knobs: Fig. 4h; for Fpeak: mean of individual knobs, n = 103 f-MKKFRW, 21 f-MKKFRWVVL, 68 MKKFRW, 26 f-MGFFIS, 63 PUM; for Ca2+ responses in VSNs, in words: VNE of adult B6 mice, f-MKKFRW 1 µM; for Ca2+ response of f-MKKFRW-responsive VSN knobs: adult B6 mice, mean ± s.d., N = 103 (f-MKKFRW), 21 (f-MKKFRWVVL), 68 (MKKFRW), 26 (f-MGFFIS), 63 (PUM)
Excerpt: as §1, §2, §3

Fpr1 = conditions: cited from earlier work
Description: (§4) We estimate the fraction of knobs responding to f-MKKFRW as ~0.15%, which is similar to the fraction of cells in the VNE that express Fpr3[30]. Strikingly, the sensitivity and sequence-selectivity profile of these responses was nearly identical to the results that we obtained for heterologously expressed Fpr3. The detection threshold of native VSNs for f-MKKFRW was ≤0.1 µM (Fig. 4f), virtually the same as for Fpr3-expres ...

Fpr2 = conditions: cited from earlier work
Description: as §4

[3] = B6, B2m-Venus+/− and NP2∆+/− mice pooled, n = 14 mice

Compound	EC50 (mouse Fpr3 (Fpr-rs1))	VSN Ca2+ responses, in words ([1]; 129Sv mice)	density of responding knobs ([1]; B2m-Venus +/−)	density of responding knobs ([1]; B6)	density of responding knobs ([1]; NP2∆ +/−)	VSN Ca2+ responses, in words ([1]; Trpc2 −/− mice)	VSN Ca2+ responses, in words ([1]; cGαo −/− mice)	density of responding knobs, mean [1, 3]	density of responding knobs, range [1, 3]	VSN Ca2+ responses, in words ([1]; ∆Fpr3-lacZ −/− mice)	fraction of knobs responding ([2]; 1 µM, VNE, B6 mice)	Ca2+ responses in Venus+ (B2m) vs GFP+ (NP2) knobs, in words ([2]; 1 µM, heterozygous NP2∆ or B2m-Venus mice, Fig. 5g, h)	Fpeak [2]	Ca2+ responses in VSNs, in words [2]	Ca2+ response of f-MKKFRW-responsive VSN knobs [2]	detection threshold for evoked Ca2+ responses in VSNs ([2]; native VSNs of adult B6 mice, Rhod-2/AM, Fig. 4f)	activation of Fpr1, in words (Fpr1)	activation of Fpr2, in words (Fpr2)
CSCC[C@H](NC=O)C(=O)N[C@@H](CCCCN)C(=O)N[C@@H](CCCCN)C(=O)N[C@@H](Cc1ccccc1)C(=O)N[C@@H](CCCNC(=N)N)C(=O)N[C@@H](Cc1c[nH]c2ccccc12)C(=O)O [f-MKKFRW] (For-MKKFRW-OH)	7.7 µM	no responses; also recorded: fail to respond	0.2 ± 0.1%	0.12 ± 0.04%	0.2 ± 0.09%	absent; also recorded: fail to respond	absent; also recorded: fail to respond	0.16 ± 0.08%	0.07 to 0.29%	absent; also recorded: fail to respond	~ 0.15%	Responses occurred in Venus+ but not in GFP+ knobs	0.71	robust, transient Ca^2+ elevations in a small subset of VSNs	0.71 ± 0.44	≤ 0.1 µM	–	–
f-MGFFIS [bacterial signal peptide fragment]	–	–	–	–	–	–	–	–	–	–	–	–	0.00	failed to evoke Ca^2+ responses in VSNs	0.00 ± 0.00	–	activates Fpr1	activates Fpr1 and Fpr2

— PMC6814738, “Bacterial MgrB peptide activates chemoreceptor Fpr3 in mouse accessory olfactory system and drives avoidance behaviour” (Nature Communications, 2019)
